Reference: paper PMC4841542, “New Anti-Inflammatory Metabolites by Microbial Transformation of Medrysone” (PLoS ONE, 2016)
Converted amounts (≈) assume the structure as drawn. “Also recorded” adds a separate entry of the source. Read-outs that look alike come from different tables or passages of the source.

Columns and labels:
[1] = test system: TNF-α produced by LPS activated THP-1 cells; assay: Cytokine inhibition assay (TNF-α ELISA); assay type: cell-based, human; details: for inhibition at 25 µg/mL: Homo sapiens, read-out: TNF-α % inhibition
Description: THP-1 (Human monocytic leukemia cells) was purchased from ECACC (85011428, European Collection of Cell Cultures, UK). The cells were maintained in endotoxin free RPMI-1640 containing 5.5 mmol/L glucose (BioM Laboratories, Chemical Division, Malaysia), 50 μmol/L mercaptoethanol Merck (Damstadt, Germany), 10% FBS (fetal bovine serum), 2 mmol/L L-glutamine (PAA Laboratories, GmbH, Pasching, Austria), 1 mmol/L sodium pyruvate (GIBCO, Grand Island, N.Y., U.S.A.), and 10 mmol/L HEPES (MP Biomedicals, lllkirch, France). Upon reaching 70% confluency, 2.5×10^5 cells/mL cells were plated in 24 well tissue culture plates. The cells were differentiated using 20 ng/mL phorbol myristate acetate (PMA) (SERVA, Heidelberg, Germany) for 24 hours. The cells were stimulated by adding 50 ng/mL of Escherichia coli lipopolysaccharide B (DIFCO Laboratories, U.S.A.) and treated with compound (25 μg/mL). The incubation was continued for 4 hours at 37°C in 5% CO2. The supernatants collected were analyzed for the level of pro-inflammatory cytokine TNF-α, and quantification was performed by human TNF-α kit (R&D Systems, Minneapolis, U.S.A.), according to manufacturer’s instructions.

[2] = test system: zymosan activated PMNs (human whole blood cells); assay: Oxidative burst inhibition assay (luminol-enhanced chemiluminescence, zymosan-activated); assay type: cell-based; details: for IC50: Whole blood cell, zymosan activated PMNs / human whole blood, tested at 1, 10, 100 μg/mL, mean ± SD of triplicates
Procedure: Oxidative burst assay was carried out by chemiluminescence technique using luminol as a probe to determine the effect of test compounds on the production of reactive oxygen species (ROS) from phagocytes, employing […] et al. method with slight modifications. […] Louis, MO, USA) and 25 μL ([…]) of luminol (Sigma Chemical Co., St. Louis, MO, USA). HBSS^++ alone was run as a negative control. The level of ROS was measured as RLU (relative light units) with a luminometer (Labsystem Luminoskan RS, Finland). The luminometer was used in repeated scan mode with 50 seconds interval, and one second point measuring time.

PHA activated T-cells = assay: T-cell proliferation inhibition assay (PBMC, tritiated thymidine); assay type: cell-based, human; details: for Inhibition of T-cell proliferation (in words): PHA activated T-cells; for IC50: T-cell
Procedure: The T-Cell proliferation inhibitory activity of compounds was evaluated by following the reported method of Nielsen et al. (1998) with slight modifications. Peripheral blood mononuclear cells (PBMC) were isolated from healthy human donors with their consent by Ficoll-Hypaque density gradient centrifugation. The study was carried out after approval from independent ethics committee, ICCBS-UoK, No: ICCBS/IEC-008-BC-2015/Protocol/1.0.
The cells were adjusted to a final concentration of 2 × 10^6 cells/mL in 5% FBS (fetal bovine serum) containing RPMI 1640 media and added with 5 μg/mL phytohemagglutinin (PHA) in 96-well round bottom plates. Each compound was added in triplicate using four concentrations (0.2, 1, 5, and 25 μg/mL). Positive control wells contained cells and PHA, whereas cells alone served as a negative control. The plate was incubated in 5% CO2 at 37°C for 72 h, and cells were pulsed with 25 μL of tritiated thymidine (0.5 μci/well). The incubation was continued for further 18 h. The cells were finally harvested on a glass fiber filter, and the plate was read as count per minute (CPM) using β-scintillation counter.

[3] = human PBMC, 5 μg/mL PHA, tested at 0.2, 1, 5, 25 μg/mL, mean ± SD of triplicates, read-out: IC50, PHA activated T-cells proliferation
[4] = Homo sapiens, read-out: IC50, PHA activated T-cells proliferation, human PBMC, 5 μg/mL PHA, tested at 0.2, 1, 5, 25 μg/mL, mean ± SD of triplicates

CC(=O)[C@H]1CC[C@H]2[C@@H]3C[C@H](C)C4=CC(=O)CC[C@]4(C)[C@H]3[C@@H](O)C[C@]12C [Compound 1, 11β-hydroxy-6α-methylpregn-4-ene-3,20-dione, reference compound]
inhibition at 25 µg/mL ([1]; compound 25 μg/mL, LPS activated THP-1 cells, 4 h, mean ± SD of triplicates, -ve sign = increase in cytokine level): 30.5 ± 1.69% | Inhibition of TNF-α production (in words) ([1]; LPS activated THP-1 cells): inhibit; also recorded: moderate levels of inhibition | IC50 [2]: > 100 µg/mL | Inhibition of T-cell proliferation (in words) (PHA activated T-cells): strongly inhibited; also recorded: strong inhibitory activity | IC50 (PHA activated T-cells; [3]): 2.9 ± 0.04 µg/mL (≈ 8.42 µM)

CC(=O)[C@H]1CC[C@@]2(O)[C@@H]3C[C@H](C)C4=CC(=O)CC[C@]4(C)[C@H]3C(=O)C[C@]12C [Compound 2, 14α-Hydroxy-6α-methylpregn-4-ene-3,11,20-trione]
inhibition at 25 µg/mL ([1]; THP-1, 4 h): -4.04 ± 0.2% | IC50 [2]: > 100 µg/mL | IC50 (PHA activated T-cells; [4]): 20 ± 0.9 µg/mL (≈ 55.8 µM) | Inhibition of T-cell proliferation (in words) (PHA activated T-cells): moderate inhibitors | melting point: 209 to 210 °C

CC(=O)[C@H]1CC[C@H]2[C@@H]3C[C@@](C)(O)C4=CC(=O)CC[C@]4(C)[C@H]3C(=O)C[C@]12C [Compound 3, 6β-Hydroxy-6α-methylpregn-4-ene-3,11,20-trione]
inhibition at 25 µg/mL ([1]; THP-1, 4 h): -2.69 ± 5.08% | IC50 [2]: > 100 µg/mL | IC50 (PHA activated T-cells; [4]): 14.6 ± 2.1 µg/mL (≈ 40.7 µM) | Inhibition of T-cell proliferation (in words) (PHA activated T-cells): moderate inhibitors

CC(=O)[C@H]1C[C@@H](O)[C@H]2[C@@H]3C[C@H](C)C4=CC(=O)CC[C@]4(C)[C@H]3C(=O)C[C@@]21C [Compound 4, 15β-Hydroxy-6α-methylpregn-4-ene-3,11,20-trione]
inhibition at 25 µg/mL ([1]; THP-1, 4 h): -7.49 ± 1.27% | IC50 [2]: > 100 µg/mL | IC50 (PHA activated T-cells; [4]): 9.2 ± 0.7 µg/mL (≈ 25.7 µM) | Inhibition of T-cell proliferation (in words) (PHA activated T-cells): strongly inhibited; also recorded: strong inhibitory activity | melting point: 185 to 186 °C

CC(=O)[C@@]1(O)CC[C@H]2[C@@H]3C[C@@](C)(O)C4=CC(=O)CC[C@]4(C)[C@H]3C(=O)C[C@@]21C [Compound 5, 6β,17α-Dihydroxy-6α-methylpregn-4-ene-3,11,20-trione]
inhibition at 25 µg/mL ([1]; THP-1, 4 h): 6.44 ± 0.21% | IC50 [2]: > 100 µg/mL | IC50 (PHA activated T-cells; [4]): 1.2 ± 0.02 µg/mL (≈ 3.2 µM) | Inhibition of T-cell proliferation (in words) (PHA activated T-cells): strongly inhibited; also recorded: strong inhibitory activity | melting point: 289 to 291 °C

CC(O)C1CCC2C3CC(C)(O)C4=CC(=O)CCC4(C)C3C(=O)CC12C (stereo not drawn) [Compound 6, 6β,20S-Dihydroxy-6α-methylpregn-4-ene-3,11-dione]
inhibition at 25 µg/mL ([1]; THP-1, 4 h): 4.4 ± 9.6% | IC50 [2]: 30.3 ± 8.8 µg/mL | Inhibition of oxidative burst / ROS (in words) ([2]; zymosan-induced, human whole blood cells / PMNs): moderate inhibitory activity | IC50 (PHA activated T-cells; [4]): 15.2 ± 2.4 µg/mL (≈ 42.2 µM) | Inhibition of T-cell proliferation (in words) (PHA activated T-cells): moderate inhibitors | melting point: 229 to 230 °C

CC(=O)[C@H]1[C@@H](O)C[C@H]2[C@@H]3C[C@H](C)C4=CC(=O)CC[C@]4(C)[C@H]3[C@@H](O)C[C@@]21C [Compound 7]
inhibition at 25 µg/mL ([1]; THP-1, 4 h): 28.6 ± 11.5% | Inhibition of TNF-α production (in words) ([1]; LPS activated THP-1 cells): inhibit; also recorded: moderate levels of inhibition | IC50 [2]: > 100 µg/mL | IC50 (PHA activated T-cells; [4]): 0.2 to 10.4 µg/mL (≈ 0.555 to 28.8 µM) | Inhibition of T-cell proliferation (in words) (PHA activated T-cells): strongly inhibited; also recorded: strong inhibitory activity | IC50, PHA activated T-cells proliferation (PHA activated T-cells; human PBMC, 5 μg/mL PHA, tested at 0.2, 1, 5, 25 μg/mL, mean ± SD of triplicates): <0.2 µg/mL

C[C@H]1C[C@H]2[C@@H]3[C@H](O)C[C@H]([C@@H](C)O)[C@@]3(C)CC(=O)[C@@H]2[C@@]2(C)CCC(=O)C=C12 [Compound 8, 15β,20R-Dihydroxy-6α-methylpregn-4-ene-3,11-dione]
inhibition at 25 µg/mL ([1]; THP-1, 4 h): -8.23 ± 2.75% | IC50 [2]: > 100 µg/mL | IC50 (PHA activated T-cells; [4]): 10.4 ± 0.42 µg/mL (≈ 28.8 µM) | Inhibition of T-cell proliferation (in words) (PHA activated T-cells): strongly inhibited; also recorded: strong inhibitory activity | melting point: 274 to 275 °C

CC(C)Cc1ccc(C(C)C(=O)O)cc1 (stereo not shown) [Ibuprofen, reference compound]
IC50 [2]: 2.5 ± 0.6 µg/mL

C[C@]12C=CC(=O)C=C1CC[C@@H]1[C@@H]2[C@@H](O)C[C@@]2(C)[C@H]1CC[C@]2(O)C(=O)CO [Prednisolone, reference compound]
IC50 (PHA activated T-cells; [3]): < 3.1 µg/mL
